Measured values from ChEMBL document CHEMBL1135286, “Synthesis and in vitro evaluation of a novel iodinated resiniferatoxin derivative that is an agonist at the human vanilloid VR1 receptor” (Bioorg Med Chem Lett, 2002).

Assays:
[1] = target: T1, Transient receptor potential cation channel subfamily V member 1 (Homo sapiens, UniProt Q8NER1); experiment: Percent induction of [Ca2+] influx compared to subsequent 80% maximal capsaicin response in human vanilloid receptor 1 expressing HEK293 cells; type: functional, cell-based
[2] = target: T1, Transient receptor potential cation channel subfamily V member 1; experiment: Induced [Ca2+] influx in Vanilloid receptor subtype 1 expressing HEK 293 cells; type: functional, cell-based, HEK293
[3] = target: T1, Transient receptor potential cation channel subfamily V member 1; experiment: Inhibition of [3H]RTX binding to human Vanilloid receptor subtype 1 expressed in HEK293 cells; type: cell-based
[4] = target: Transient receptor potential cation channel subfamily V member 1 (Rattus norvegicus) (UniProt O35433); experiment: Percent induction of [Ca2+] influx compared to subsequent 80% maximal capsaicin response in rat Vanilloid receptor 1 expressing HEK293 cells; type: functional, cell-based
Chain of Transient receptor potential cation channel subfamily V member 1 (Rattus norvegicus) (O35433 whole entry): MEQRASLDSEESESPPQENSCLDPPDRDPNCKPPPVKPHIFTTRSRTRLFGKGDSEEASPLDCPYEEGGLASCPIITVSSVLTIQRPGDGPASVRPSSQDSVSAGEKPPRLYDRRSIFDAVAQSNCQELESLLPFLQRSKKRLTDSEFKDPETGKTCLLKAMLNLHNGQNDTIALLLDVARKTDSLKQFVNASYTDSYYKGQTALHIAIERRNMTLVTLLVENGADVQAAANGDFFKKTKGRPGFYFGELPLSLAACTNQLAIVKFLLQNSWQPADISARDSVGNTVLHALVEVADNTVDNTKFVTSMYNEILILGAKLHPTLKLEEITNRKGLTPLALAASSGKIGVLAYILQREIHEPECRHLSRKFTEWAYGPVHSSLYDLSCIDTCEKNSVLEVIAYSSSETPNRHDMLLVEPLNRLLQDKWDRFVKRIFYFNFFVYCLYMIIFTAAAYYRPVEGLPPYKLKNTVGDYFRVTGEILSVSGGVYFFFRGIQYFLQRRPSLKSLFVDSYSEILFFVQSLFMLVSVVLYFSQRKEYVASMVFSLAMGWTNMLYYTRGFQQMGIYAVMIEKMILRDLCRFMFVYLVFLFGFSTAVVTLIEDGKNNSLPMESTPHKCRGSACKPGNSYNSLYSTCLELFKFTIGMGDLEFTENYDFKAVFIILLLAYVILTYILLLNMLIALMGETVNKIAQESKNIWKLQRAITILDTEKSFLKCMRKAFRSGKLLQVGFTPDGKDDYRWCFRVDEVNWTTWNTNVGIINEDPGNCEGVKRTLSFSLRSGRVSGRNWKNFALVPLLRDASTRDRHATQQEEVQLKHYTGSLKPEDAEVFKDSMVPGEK

T1 sequence (Q8NER1 whole entry): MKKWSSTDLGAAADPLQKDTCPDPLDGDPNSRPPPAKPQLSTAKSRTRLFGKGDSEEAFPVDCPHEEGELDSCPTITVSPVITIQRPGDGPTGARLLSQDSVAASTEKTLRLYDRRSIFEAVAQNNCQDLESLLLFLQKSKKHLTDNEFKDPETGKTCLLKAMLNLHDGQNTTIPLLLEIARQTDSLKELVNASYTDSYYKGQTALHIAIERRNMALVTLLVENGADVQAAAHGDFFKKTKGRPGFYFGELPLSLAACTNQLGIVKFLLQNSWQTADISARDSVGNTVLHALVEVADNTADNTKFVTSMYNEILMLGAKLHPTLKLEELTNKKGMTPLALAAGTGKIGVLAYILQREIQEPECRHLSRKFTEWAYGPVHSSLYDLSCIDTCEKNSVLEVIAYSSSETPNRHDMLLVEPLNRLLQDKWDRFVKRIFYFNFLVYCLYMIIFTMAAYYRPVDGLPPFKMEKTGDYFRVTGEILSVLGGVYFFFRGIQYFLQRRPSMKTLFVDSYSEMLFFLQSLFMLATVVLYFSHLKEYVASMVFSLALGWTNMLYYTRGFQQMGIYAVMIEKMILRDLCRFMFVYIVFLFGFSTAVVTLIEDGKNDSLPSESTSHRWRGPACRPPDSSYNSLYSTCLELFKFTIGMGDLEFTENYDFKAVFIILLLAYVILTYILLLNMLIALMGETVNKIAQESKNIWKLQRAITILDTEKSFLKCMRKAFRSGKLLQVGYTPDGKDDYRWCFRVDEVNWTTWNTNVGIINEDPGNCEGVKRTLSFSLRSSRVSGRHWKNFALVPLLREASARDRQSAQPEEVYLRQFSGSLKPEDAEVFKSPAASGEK

SMILES | Efficacy [1] [%] | EC50 [2] [nM] | Ki [3] [nM] | Efficacy [4] [%] | IC50 [2] [nM]
C=C(C)[C@]12C[C@@H](C)[C@@]34O[C@](Cc5ccccc5)(O[C@@H]1[C@@H]3C=C(COC(=O)Cc1cc(OC)c(OC(C)=O)cc1I)C[C@]1(O)C(=O)C(C)=C[C@@H]41)O2 | 75 | 935 | 1.46 | – | –
C=C(C)[C@]12C[C@@H](C)[C@@]34O[C@](Cc5ccccc5)(O[C@@H]1[C@@H]3C=C(COC(=O)Cc1ccc(O)c(OC)c1)C[C@]1(O)C(=O)C(C)=CC41)O2 (single isomer, unassigned) [RESINIFERATOXIN] | 116 | 1.9 | 0.48 | – | –
C=C(C)[C@]12C[C@@H](C)[C@@]34O[C@](Cc5ccccc5)(O[C@@H]1[C@@H]3C=C(COC(=O)Cc1cc(OC)c(O)cc1I)C[C@]1(O)C(=O)C(C)=C[C@@H]41)O2 | 50 | 130 | 0.71 | 92 | –
C=C(C)[C@]12C[C@@H](C)[C@@]34OC(Cc5ccccc5)(O[C@@H]1[C@@H]3C=C(COC(=O)Cc1ccc(O)c(OC)c1I)C[C@]1(O)C(=O)C(C)=C[C@@H]41)O2 | – | – | 1.4 | – | 27
